From article PMC9782626, “Copper(II) Complexes of 5–Fluoro–Salicylaldehyde: Synthesis, Characterization, Antioxidant Properties, Interaction with DNA and Serum Albumins” (Molecules, 2022)
Like-named read-outs stand apart in the source and are kept apart here.

Legend:
[1] = ABTS radical cation scavenging assay; format: biochemical; conditions: compound 0.1 mM, 1 min
Source text: (§1) For the above reasons, the antioxidant ability of 5–F–saloH and Cu(II) complexes 1–5 has been evaluated via their scavenging activity towards DPPH and ABTS radicals, as well as the ability to reduce H2O2, and in comparison with that of well-known antioxidant agents such as nordihydroguaiaretic acid (NDGA), butylated hydroxytoluene (ΒHΤ), 6–hydroxy–2,5,7,8–tetramethylchromane–2–carboxylic acid (trolox) and L–ascorbic acid (these are the most commonly used standard reference antioxidant agents). The DPPH-radical assay was developed in the 1950s and this method has been used to assess the antioxidant capacity of several metal complexes. The DPPH–scavenging ability of compounds has often been related to their ability to prevent ageing, cancer and inflammation. The ability of a compound to scavenge the cationic ABTS radicals (ABTS^+●) has been considered a measure of its total antioxidant activity. Further, hydrogen peroxide has the ability to penetrate biological membranes and, although it is not very reactive itself, it can sometimes be toxic since it may give rise to hydroxyl radicals in cells. For this reason, the removal of H2O2 is very important for the protection of living systems. When a compound is incubated with H2O2 using a peroxidase assay system, the loss of H2O2 can be measured.
(§2) S1 Antioxidant activity assay
The antioxidant activity of the compounds was evaluated via their ability to scavenge in vitro free radicals such as DPPH and ABTS and to reduce H 2O2. All the experiments were carried out at least in triplicate and the standard deviation of absorbance was less than 10% of the mean. […]
S1.2 Assay of radical cation ABTS-scavengin g activity
The ABTS assay was performed to determine the activity of the compounds to scavenge the radical cation ABTS. Initially, a water solution of ABTS was prepared (2 mM). ABTS radical cation (ABTS+·) was produced by the reaction of ABTS stock solution with potassium persulfate (0.17 mM) and the mixture was stored in the dark at room temperature for 12-16 h before its use. The ABTS was oxidized incompletely because the stoichiometric reaction ratio of ABTS and potassium persulfate is 1:0.5. The absorbance became maximal and stable only after more than 6 h of reaction although the oxidation of the ABTS started immediately. The radical was stable in this form for more than 2 days when allowed to stand in the dark at room temperature. Afterwards, the ABTS+· solution was diluted in ethanol to an absorbance of 0.70 at 734 nm and 10 μL of diluted compounds or standards (0.1 mM) in DMSO were added. The absorbance was recorded out exactly 1 min after init ial m ix in g [S 1]. The ABTS radical scavenging act ivit y was expressed as the percentage inhibition of the absorbance of the initial ABTS solution (ABTS%). Trolox was used as an appropriate standard. […]

[2] = set-up: method as in PMID 35890184; conditions: cited from earlier work
CT DNA = conditions: cited from earlier work
[3] = molecular target: T1, human serum albumin (HSA) (Homo sapiens, UniProt P02768); set-up: method as in PMID 35890184; conditions: cited from earlier work
T1 construct: purchased Sigma–Aldrich Co

[4] = molecular target: T2, bovine serum albumin (BSA) (Bos taurus, UniProt P02769); set-up: method as in PMID 35890184; conditions: cited from earlier work
T2 construct: purchased Sigma–Aldrich Co

[5] = set-up: method as in PMID 35890184; conditions: cited from earlier work; remark: listed apart in the source
[6] = test system: EB–DNA conjugate (CT DNA); set-up: method as in PMID 35890184; conditions: cited from earlier work
[7] = set-up: method as in PMID 35890184; conditions: cited from earlier work; remark: listed apart in the source
[8] = DPPH radical scavenging assay; format: biochemical; conditions: compound 0.1 mM
Source text: as §1, §2
(§3) The antioxidant activity of the compounds was evaluated via their ability to scavenge in vitro free radicals such as DPPH and ABTS and to reduce H 2O2. All the experiments were carried out at least in triplicate and the standard deviation of absorbance was less than 10% of the mean.
S1.1 Determination of the reducing activity of the radical DPPH
To an ethanolic solution of DPPH (0.1 mM) an equal volume solution of the compounds (0.1 mM) in ethanol was added. Absolute ethanol was also used as control solution. The absorbance at 517 nm was recorded at room temperature after 30 and 60 min, in order to examine the possible existence of a potential time-dependence of the DPPH radical scavenging act iv ity [S 1]. The DPPH -scavenging activity of the compounds was expressed as the percentage reduction of the absorbance values of the initial DPPH solution ( DPPH%). N DGA and BHT were used as reference comp ounds. […]

[9] = Reduction of hydrogen peroxide; format: biochemical; conditions: compound 0.1 mM, 10 min, pH 7.4
Source text: as §1, §2, §3
S1.1 Determination of the reducing activity of the radical DPPH […]
S1.3 Reduction of hydrogen peroxide
The ability of the com pounds to reduce hydrogen peroxide (H2O2) was est imated according to the method descr ibed in the literature [S2]. The reaction mixture contained 20 μL of each of the tested compounds (0.1 mM) and 5 μL H2O 2 solution (40 mM) in phosphate buffer (50 mM, pH = 7.4). The absorbance was measure d at 230 nm after 10 min.
The antioxidant activity (reduction of hydrogen peroxide) of the compounds wa s […]
expressed as the percentage decrease of t he init ial H 2O2 solution (H 2O2%). L-ascor b ic ac id (or vitamin C) was use d as a standard. […]
[DNA] = [DNA] + 1 (eq. S1) […]
where [DNA] is the concentration of DNA in base pa irs, εA = Aobsd/[compound ], εf = the extinction coefficient for the free compound and ε b = the extinction coefficient for the compound in the fully bound form. Kb is given by the ratio of slope to the y intercept in plots [DNA]/(εA-εf) versus[DNA].
S2.2CT DNA -binding studie s by viscosity measurements
The interaction of compounds with DNA has been evaluated via the study of the CT DNA viscosity ([DNA] = 0.1 mΜ) in a buffer solution (150 mM NaCl and 15 mM trisodium citrate at pH 7.0) in the presence of increasing amount of complexes (up to the value of r = 0.36). The obtained data are presented as (η/η 0)1/3 versus r, where η is the viscosity of DNA in the presence of the compound, and η0 is the viscosity of DNA alone in buffer solution.
S2.3 EB -displa cement studie s
The competition of the complexes with EB was investigated by fluorescence emission spectroscopy in order to examine whether the compounds can displace EB from its DNA-EB conjugate. The CT DNA-EB complex was formed by pre-treating 20 μM EB and 26 μM CT DNA in buffer (150 mM NaCl and 15 mM trisodium citrate at pH = 7.0).
The possible displacement of EB by the compounds and su bseq uently t he ir intercalating effect was studied by the stepwise addition of a certain amount of the solution of each

T1 sequence (P02768 25-609): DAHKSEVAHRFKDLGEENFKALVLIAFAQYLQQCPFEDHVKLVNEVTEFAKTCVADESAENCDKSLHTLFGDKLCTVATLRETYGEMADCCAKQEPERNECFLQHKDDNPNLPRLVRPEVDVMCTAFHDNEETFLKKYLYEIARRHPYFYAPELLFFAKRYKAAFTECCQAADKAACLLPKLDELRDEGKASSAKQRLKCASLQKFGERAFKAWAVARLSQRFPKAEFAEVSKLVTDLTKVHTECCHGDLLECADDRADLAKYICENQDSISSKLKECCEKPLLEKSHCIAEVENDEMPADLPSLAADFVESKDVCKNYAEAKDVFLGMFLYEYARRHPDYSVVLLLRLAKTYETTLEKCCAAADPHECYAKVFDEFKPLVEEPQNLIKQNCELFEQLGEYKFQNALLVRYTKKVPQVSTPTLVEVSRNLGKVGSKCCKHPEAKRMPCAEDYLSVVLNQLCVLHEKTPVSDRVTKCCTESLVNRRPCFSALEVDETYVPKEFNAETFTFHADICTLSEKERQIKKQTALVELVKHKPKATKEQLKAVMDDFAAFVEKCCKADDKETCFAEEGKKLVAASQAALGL
T2 sequence (P02769 25-607): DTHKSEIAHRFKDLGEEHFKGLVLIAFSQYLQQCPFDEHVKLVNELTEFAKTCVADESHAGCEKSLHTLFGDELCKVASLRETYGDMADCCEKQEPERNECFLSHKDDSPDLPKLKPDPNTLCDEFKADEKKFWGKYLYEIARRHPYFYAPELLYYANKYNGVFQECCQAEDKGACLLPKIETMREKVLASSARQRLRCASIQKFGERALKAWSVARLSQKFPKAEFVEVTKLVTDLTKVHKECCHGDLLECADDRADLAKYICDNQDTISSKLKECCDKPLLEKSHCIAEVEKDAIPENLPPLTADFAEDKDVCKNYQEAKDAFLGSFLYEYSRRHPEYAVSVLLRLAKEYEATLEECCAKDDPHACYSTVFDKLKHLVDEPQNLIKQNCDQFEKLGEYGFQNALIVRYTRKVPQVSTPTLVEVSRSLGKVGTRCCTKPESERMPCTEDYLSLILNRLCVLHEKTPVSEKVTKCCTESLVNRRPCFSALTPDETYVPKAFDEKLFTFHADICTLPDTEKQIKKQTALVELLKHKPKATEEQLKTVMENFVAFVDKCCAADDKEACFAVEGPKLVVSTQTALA

Cc1c(C)c2c(c(C)c1O)CCC(C)(C(=O)O)O2 (stereo not drawn) [Trolox, 6–hydroxy–2,5,7,8–tetramethylchromane–2–carboxylic acid, reference compound]
ABTS%, % ABTS–scavenging activity [1]: 98.10 ± 0.48%

O=Cc1cc(F)ccc1O [5–F–saloH, 5–fluoro–salicylaldehyde]
ABTS%, % ABTS–scavenging activity [2]: 19.57 ± 0.58% | ΔA/Aο, percentage of hyper-/hypo-chromism upon addition of CT DNA (CT DNA; band at 334 nm): −30% | ΔA/Aο, percentage of hyper-/hypo-chromism upon addition of CT DNA (CT DNA; band at 421 nm): > +50% | HSA-binding constant K [3]: 4.65 (±0.35) × 10^4 M^−1 | HSA-quenching constant kq [3]: 1.96 (±0.07) × 10^12 M^−1 s^−1 | ΔΙ/Ιο, quenching of the HSA fluorescence [3]: 25.7% | % relative HSA fluorescence emission intensity I/Io remaining (% of initial) ([3]; final value): 74.3% | BSA-binding constant K [4]: 4.31 (±0.31) × 10^4 M^−1 | BSA-quenching constant kq [4]: 1.98 (±0.08) × 10^12 M^−1 s^−1 | ΔΙ/Ιο, quenching of the BSA fluorescence [4]: 25.7% | % relative BSA fluorescence emission intensity I/Io remaining (% of initial) ([4]; final value): 74.3% | DPPH% (30 min), % DPPH–scavenging ability ([5]; 30 min): 3.96 ± 1.16% | DPPH% (60 min), % DPPH–scavenging ability ([5]; 60 min): 5.56 ± 1.06% | EB–DNA quenching constant kq [6]: 1.73 (±0.05) × 10^12 M^−1 s^−1 | Stern–Volmer constant Ksv (EB–DNA) [6]: 3.79 (±0.11) × 10^4 M^−1 | ΔΙ/Ιο, percentage of EB–DNA fluorescence quenching [6]: 51.3% | EB–DNA relative fluorescence emission intensity I/Io remaining (% of initial) ([6]; λemission = 592 nm, final value): 48.7% | H2O2%, H2O2–reducing activity [7]: 71.84 ± 0.95%

Cc1cc(C(C)(C)C)c(O)c(C(C)(C)C)c1 [BHT, butylated hydroxytoluene, reference compound]
DPPH% (30 min), % DPPH–scavenging ability [8]: 61.30 ± 1.16% | DPPH% (60 min), % DPPH–scavenging ability [8]: 79.78 ± 1.12%

O=C1O[C@H]([C@@H](O)CO)C(O)=C1O [L–ascorbic acid, reference compound]
H2O2%, H2O2–reducing activity [9]: 60.80 ± 0.20%

CC(Cc1ccc(O)c(O)c1)C(C)Cc1ccc(O)c(O)c1 (stereo not drawn) [NDGA, nordihydroguaiaretic acid, reference compound]
DPPH% (30 min), % DPPH–scavenging ability [8]: 87.08 ± 0.12% | DPPH% (60 min), % DPPH–scavenging ability [8]: 87.47 ± 0.12%
